The results in this text go back to US20200131144A1, “AMINE OR (THIO)AMIDE CONTAINING LXR MODULATORS” (Phenex-FXR GmbH, priority 2017, published 2020).

The structures appear in SMILES notation.

The target of assay [1] is T1, GST-LXRβ ligand-binding domain (Homo sapiens, UniProt P55055, INS174Q).
T1 construct: amino acids 156-461; NP009052; made in house; host or cells: E. coli
T1 sequence (P55055 with tags, fused parts or gaps INS174Q limits assumed): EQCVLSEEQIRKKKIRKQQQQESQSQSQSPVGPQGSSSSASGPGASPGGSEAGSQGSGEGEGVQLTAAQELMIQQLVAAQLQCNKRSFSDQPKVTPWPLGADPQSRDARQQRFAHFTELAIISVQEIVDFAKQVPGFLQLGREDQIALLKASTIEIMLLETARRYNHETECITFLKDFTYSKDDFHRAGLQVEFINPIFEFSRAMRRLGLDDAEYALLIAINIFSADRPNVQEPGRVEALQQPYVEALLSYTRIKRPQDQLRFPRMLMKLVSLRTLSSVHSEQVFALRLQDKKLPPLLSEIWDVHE
The experiment in a line: TR-FRETβ activity assay (NCoA3 coactivator peptide recruitment). In kind it is biochemical. The note with it: 1 μM 24(S)-25-epoxycholesterol as prestimulating agonist; inverse agonist unless *. The protocol:
The tested compounds were usually dissolved, tested and stored as 20 mM stock solutions in DMSO. […] Sulfonyl acetic acid derivatives are shelf stable as solid at rt for long time as reported by Griesbrecht et al. (Synlett 2010:374) or Faucher et al. (J. Med. Chem. 2004; 47:18). TR-FRETβ Activity Assay Recombinant GST-LXRβ ligand-binding domain (LBD; amino acids 156-461; NP009052; SEQ ID NO:4) was expressed in E. coli and purified via gluthatione-sepharose affinity chromatography. N-terminally biotinylated NCoA3 coactivator peptide (SEQ ID NO:7) was chemically synthesized (Eurogentec). […] Finally, a detection mix was added containing anti GST-Tb cryptate (CisBio; 610SAXLB) and Streptavidin-XL665 (CisBio; 610SAXLB) as fluorescent donor and acceptor, respectively, as well as the coactivator peptide and LXRβ-LBD protein (SEQ ID NO:4). The reaction was mixed thoroughly, equilibrated for 1 h at 4° C. and vicinity of LXRβ and coactivator peptide was detected by measurement of fluorescence in a VictorX4 multiplate reader (PerkinElmer Life Science) using 340 nm as excitation and 615 and 665 nm as emission wavelengths. Assays were performed in triplicates. Final Assay Concentrations of Components: 240 mM KCl, 1 μg/μL BSA, 0.002% Triton-X-100, 125 pg/μL anti GST-Tb cryptate, 2.5 ng/μL Streptavidin-XL665, coactivator peptide (400 nM), LXRP protein ([…], i.e. 76 nM).

The target of the next assay is T2, LXRβ full length (FL) (Homo sapiens, UniProt P55055, INS174Q).
T2 construct: the full length (FL) proteins of LXRα (amino acids 1-447); NP005684; NP009052; expressed in transfected cells; host or cells: HEK293
T2 sequence (P55055 with tags, fused parts or gaps INS174Q): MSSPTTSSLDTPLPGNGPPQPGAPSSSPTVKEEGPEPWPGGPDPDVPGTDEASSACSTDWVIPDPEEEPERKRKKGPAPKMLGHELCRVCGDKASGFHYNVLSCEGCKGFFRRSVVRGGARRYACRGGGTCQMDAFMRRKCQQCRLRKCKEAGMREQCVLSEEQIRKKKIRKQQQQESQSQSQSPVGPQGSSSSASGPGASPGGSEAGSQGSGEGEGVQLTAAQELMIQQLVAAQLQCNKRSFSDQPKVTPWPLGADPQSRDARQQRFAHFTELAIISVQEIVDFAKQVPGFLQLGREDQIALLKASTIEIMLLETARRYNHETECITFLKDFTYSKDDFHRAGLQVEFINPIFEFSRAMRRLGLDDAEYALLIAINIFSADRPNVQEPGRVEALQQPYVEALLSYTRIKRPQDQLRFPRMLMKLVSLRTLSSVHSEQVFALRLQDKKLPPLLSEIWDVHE
The experiment in a line: LXR Gal4 reporter transient transfection assay, mammalian two-hybrid, FL-M2H Gal4β. The format is cell-based. Conditions: HEK293 cells; inverse agonist unless *. The protocol:
(§1) The tested compounds were usually dissolved, tested and stored as 20 mM stock solutions in DMSO. Since sulfonyl acetic acid derivatives tend to decarboxylate under these conditions, these stock solutions were prepared, tested and stored as 20 mM DMSO stock solutions containing 100 mM trifluoroacetic acid (5 equivalents). Sulfonyl acetic acid derivatives are shelf stable as solid at rt for long time as reported by Griesbrecht et al. (Synlett 2010:374) or Faucher et al. (J. Med. Chem. 2004; 47:18).
(§2) LXR Gal4 Reporter Transient Transfection Assays
(§3) LXRα and LXRβ activity status was determined via detection of interaction with coactivator and corepressor proteins in mammalian two-hybrid experiments (M2H). For this, via transient transfection the full length (FL) proteins of LXRα (amino acids 1-447; NP005684; SEQ ID NO:1) or LXRβ-(amino acids 1-461; NP009052; SEQ ID NO:2) or the ligand-binding domains (LBD) of LXRα (amino acids 155-447 SEQ ID NO:3) or LXR (amino acids 156-461; SEQ ID NO:4) were expressed from pCMV-AD (Stratagene) as fusions to the transcriptional activation domain of NFkB. As cofactors, domains of either the steroid receptor coactivator 1 (SRC1; amino acids 552-887; SEQ ID NO:5) or of the corepressor NCoR (amino acids 1906-2312; NP006302; SEQ ID NO:6) were expressed as fusions to the DNA binding domain of the yeast transcription factor GAL4 (from pCMV-BD; Stratagene). Interaction was monitored via activation of a coexpressed Firefly Luciferase Reporter gene under control of a promoter containing repetitive GAL4 response elements (vector pFRLuc; Stratagene). Transfection efficiency was controlled via cotransfection of constitutively active pRL-CMV Renilla reniformis luciferase reporter (Promega). HEK293 cells were grown in minimum essential medium (MEM) with 2 mM L-glutamine and Earle's balanced salt solution supplemented with 8.3% fetal bovine serum, 0.1 mM non-essential amino acids, 1 mM sodium pyruvate, at 37° C. in 5% CO2. 3.5×10^4 cells/well were plated in 96-well cell culture plates in growth medium supplemented with 8.3% fetal bovine serum for 16-20 h to—90% confluency. For transfection, medium was taken off and LXR and cofactor expressing plasmids as well as the reporter plasmids are added in 30 μL OPTIMEM/well including polyethylene-imine (PEI) as vehicle. Typical amounts of plasmids transfected/well: pCMV-AD-LXR (5 ng), pCMV-BD-cofactor (5 ng), pFR-Luc (100 ng), pRL-CMV (0.5 ng). Compound stocks were prepared in DMSO, prediluted in MEM to a total volume of 120 μL, and added 4 h after addition of the transfection mixture (final vehicle concentration not exceeding 0.2%). Cells were incubated for additional 16 h, lysed for 10 min in 1×Passive Lysis Buffer (Promega) and Firefly and Renilla luciferase activities were measured sequentially in the same cell extract using buffers containing D-luciferine and coelenterazine, respectively. Measurements of luminescence were done in a BMG-luminometer.

In a further assay the target is T3, LXRα full length (FL) (Homo sapiens, UniProt Q13133).
T3 construct: the full length (FL) proteins of LXRα (amino acids 1-447); NP005684; expressed in transfected cells; host or cells: HEK293
T3 sequence (Q13133 1-447): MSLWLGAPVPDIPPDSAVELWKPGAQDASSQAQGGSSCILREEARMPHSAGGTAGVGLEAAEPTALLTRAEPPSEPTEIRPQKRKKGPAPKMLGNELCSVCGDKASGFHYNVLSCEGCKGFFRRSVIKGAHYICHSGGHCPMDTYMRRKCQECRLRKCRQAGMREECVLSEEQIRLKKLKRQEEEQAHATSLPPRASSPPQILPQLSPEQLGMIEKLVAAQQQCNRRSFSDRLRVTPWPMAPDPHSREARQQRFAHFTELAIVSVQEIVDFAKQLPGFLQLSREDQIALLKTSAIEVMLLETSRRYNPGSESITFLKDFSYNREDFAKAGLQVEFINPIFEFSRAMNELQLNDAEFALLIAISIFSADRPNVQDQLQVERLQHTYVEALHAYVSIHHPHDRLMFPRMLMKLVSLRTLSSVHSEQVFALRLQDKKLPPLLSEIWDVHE
The experiment in a line: LXR Gal4 reporter transient transfection assay, mammalian two-hybrid, FL-M2H Gal4α. The format is cell-based. The note with it: HEK293 cells; inverse agonist unless *. Here is the method: as §1, §2, §3

As to `Cc1cc(C)c(CCN(Cc2ccc(-c3cccc(S(=O)(=O)CC(=O)O)c3)cc2)Cc2ccc(C(F)(F)F)o2)c(C)c1` [7/8], the EC50 in assay [1] is > 10000 nM; at LXRβ full length (FL), 1000 to 10000 nM.

Molecule `O=C(O)CS(=O)(=O)c1cccc(-c2ccc(CN(Cc3ccccc3)Cc3ccc(C(F)(F)F)o3)cc2)c1` [7/11] returned a 50% effective concentration (EC50) on LXRβ full length (FL) of 1000 to 10000 nM.

On to `COc1cc(-c2cccc(S(=O)(=O)CC(=O)O)c2)ccc1CN(Cc1ccc(C(F)(F)F)o1)Cc1c(C)cc(C)cc1C` [15/2], for which the EC50 (in assay [1]; on LXRβ full length (FL)) was 1000 to 10000 nM throughout.

In the case of `Cc1cc(C)c(CN(Cc2ccc(C(F)(F)F)o2)Cc2sc(-c3cccc(S(=O)(=O)CC(=O)O)c3)cc2Cl)c(C)c1` [15/4], the EC50 in assay [1] is > 10000 nM; at LXRβ full length (FL), 100 to 1000 nM.

Consider `COc1cc(-c2cc(F)c(CO)c(S(=O)(=O)CC(=O)O)c2)cnc1CN(Cc1ccc(C(F)(F)F)o1)Cc1c(C)ccc2ccccc12` [22/3], for which the EC50 is 1000 to 10000 nM on LXRα full length (FL) and 100 to 1000 nM on LXRβ full length (FL).

For the molecule `Cc1nc(C)c(CN(Cc2ccc(-c3cc(F)c(CO)c(S(=O)(=O)CC(=O)O)c3)cc2)Cc2ccc(C(F)(F)F)o2)c(C)n1` [22/6], the half-maximal effective concentration (EC50) (in assay [1]; on LXRβ full length (FL)) was 1000 to 10000 nM in each case.

Regarding `Cc1ccc2ccccc2c1C(=O)N(Cc1ccc(-c2cccc(C(C)(C)C(=O)O)c2)cc1)Cc1ccc(C(=O)O)o1` [27/29], the EC50 at LXRα full length (FL) and at LXRβ full length (FL) was 1000 to 10000 nM throughout.

`O=C(O)CS(=O)(=O)c1cccc(-c2ccc(CN(Cc3ccc(C(F)(F)F)o3)C3CCc4cccc5cccc3c45)cc2)c1` (centres unmarked) [27/40]: the EC50 was > 10000 nM in assay [1] and 1000 to 10000 nM at LXRβ full length (FL).

For the molecule `Cc1cc(C)c(CN(Cc2ccc(-c3cccc(S(=O)(=O)CC(=O)O)c3)cc2)C(=O)c2ccc(C(F)(F)F)o2)c(C)c1` [27/57], the 50% effective concentration (EC50) in assay [1] was > 10000 nM.

For the molecule `Cc1ccc2ccccc2c1C(=O)N(Cc1ccc(C(F)(F)F)o1)Cc1ccc(-c2cncc(C(C)(C)C(=O)O)c2)cc1C(F)F` [27/63], the EC50 in assay [1] lay within 100 to 1000 nM.

On to `CC1CCc2ccccc2N1C(=O)N(Cc1ccc(-c2cccc(C(C)(C)C(=O)O)c2)cc1)Cc1ccc(C(F)(F)F)o1` (centres unmarked) [27/96], for which the concentration for a half-maximal effect (EC50) at LXRα full length (FL) and on LXRβ full length (FL) was < 100 nM throughout.

For `COc1ccc2nc(C)c(C)c(C(=O)N(Cc3ccc(-c4cccc(C(C)(C)C(=O)O)c4)cc3)Cc3ccc(C(F)(F)F)o3)c2n1` [27/134], the EC50 on LXRα full length (FL) and on LXRβ full length (FL) was < 100 nM in each case.

In the case of `Cc1cc(C)c(CN(Cc2ccc(-c3cccc(S(=O)(=O)CC(=O)NS(=O)(=O)N(C)C)c3)cc2)Cc2ccc(C(F)(F)F)o2)c(C)c1` [Example 2/1], in assay [1], the EC50 was > 10000 nM.

Turning to `Cc1cc(C)c(CC(=O)N(Cc2ccc(-c3cccc(S(=O)(=O)CC(=O)O)c3)cc2)Cc2ccc(C(F)(F)F)o2)c(C)c1` [Example 9/1], the EC50 on LXRβ full length (FL) is 1000 to 10000 nM.

The molecule `Cc1cc(C)c(CN(Cc2ccc(-c3ccc(CO)c(S(=O)(=O)CC(=O)O)c3)cc2)Cc2ccc(C(F)(F)F)o2)c(C)c1` [Example 12, 2-((4-(Hydroxvmethyl)-4′-((((5-(trifluoromethyl)furan-2-yl)methyl)(2,4,6-trimethyl-benzyl)amino)methyl)-[1,1′-biphenyl]-3-yl)sulfonyl)acetic acid] registered an EC50 in assay [1] of 1000 to 10000 nM.

Consider `Cc1ccc2ccccc2c1C(=O)N(Cc1ccc(-c2cccc(S(=O)(=O)CC(=O)O)c2)cc1)Cc1ccc(C(N)=O)o1` [Example 16, 2-((4′-((N-((5-Carbamoylfuran-2-yl)methyl)-2-methyl-1-naphthamido)methyl)-[1,1′-biphenyl]-3-yl)sulfonyl)acetic acid], for which the EC50 at LXRβ full length (FL) was 1000 to 10000 nM.

Take `CC(C)(C(=O)O)c1cccc(-c2ccc(CN(Cc3ccc(C(F)(F)F)o3)C(CF)c3cccc4ccccc34)cc2)c1` (centres unmarked) [Example 18, 2-(4′-(((2-Fluoro-1-(naphthalen-1-yl)ethyl)((5-(trifluoromethyl)furan-2-yl)methyl)amino)methyl)-[1,1′-biphenyl]-3-yl)-2-methylpropanoic acid]: the EC50 at LXRβ full length (FL) lay within 100 to 1000 nM.

For the molecule `Cc1cc(C)c(CN(Cc2ccc(-c3cc(F)c(CF)c(S(=O)(=O)CC(=O)O)c3)cc2)Cc2ccc(C(F)(F)F)o2)c(C)c1` [Example 20, 2-((5-Fluoro-4-(fluoromethyl)-4′-((((5-(trifluoromethyl)furan-2-yl)methyl)(2,4,6-trimethyl-benzyl)amino)methyl)-[1,1′-biphenyl]-3-yl)sulfonyl)acetic acid], the EC50 in assay [1] was in the range of 1000 to 10000 nM; at LXRβ full length (FL), 100 to 1000 nM.

As to `Cc1ccc2ccccc2c1CN(Cc1ccc(C(F)(F)F)o1)Cc1ccc(-c2cccc(S(=O)(=O)CC(=O)O)c2)c2nccn12` [Example 27, 2-((3-(5-((((2-Methylnaphthalen-1-yl)methyl)((5-(trifluoromethyl)furan-2-yl)methyl)amino)methyl)imidazo[1,2-a]pyridin-8-yl)phenyl)sulfonyl)acetic acid], in assay [1], the EC50 was > 10000 nM.
